{"source": "patent US20120003329A1", "about": "“Use of A2B Adenosine Receptor Antagonists for Treating Pulmonary Hypertension” (Gilead Sciences, Inc., priority 2010, published 2012)", "key": {"HPASMs [1]": {"tested_on": "HPASMs", "assay": "Smooth muscle cell migration, Boyden chamber with conditional media", "type": "cell-based, human", "settings": "conditional medium from HPASMs, NECA 10 μM and Compound A 100 nM, 18 hours; migration 24 hours", "description": "Conditional media were collected from HPASMs treated with vehicle, NECA (10 μM), NECA (10 μM) and Compound A (100 nM), or NECA (10 μM) and an anti-IL-6 antibody (1 ng/mL, purchased from Invitrogen) for 18 hours were added to the lower wells of Boyden chamber assay systems as chemoattractants. HPASMs were allowed to migrate for 24 hours. […] It was also observed that IL-8 neutralizing antibody had no effect on cell migration. […] The released IL-6 in turn enhances smooth muscle cell migration (see FIG. 10B for illustration)."}, "HPASMs [2]": {"tested_on": "HPASMs", "assay": "Expression of collagen, extracellular matrix proteins and enzymes, real-time RT-PCR array", "type": "cell-based, human", "settings": "NECA 10 μM together with Compound A 100 nM, 1.5 hours", "description": "(§1) Gene expression was determined using real-time RT-PCR with Stratagene PCR equipment (La Jolla, Calif.). Zhong H., et al. “A2B adenosine receptors increase cytokine release by bronchial smooth muscle cells, “American Journal of Respiratory Cell and Molecular Biology, 30(1): 118-125 (2004).\nHPASMs were incubated in the presence of NECA (10 μM) or NECA (10 μM) together with Compound A (100 nM) for 1.5 hours. A real-time-RT-PCR array focusing on genes involved in tissue remodeling were conducted on the RNAs isolated from the HPASMs. NECA increased the mRNA expression of ADAMTS1, ADAMTS8, CDH1, MMPI, MMP12, HAS1, ITGA7, COL1A1, COL8A1 and CTGF (FIG. 12A-B)."}, "[3]": {"tested_on": "adenosine deaminase (ADA)-deficient mouse model of adenosine-dependent pulmonary injury", "assay": "Vascular wall thickening in the lungs of ADA-deficient mice (H&E staining)", "type": "in vivo", "settings": "1 mg/kg intraperitoneal twice daily for 14 days, lungs at postnatal day 38", "description": "The model system being used is the adenosine deaminase (ADA)-deficient mouse model of adenosine-dependent pulmonary injury.\nThis example follows the protocol described in Sun C X, et al. “Role of A2B adenosine receptor signaling in adenosine-dependent pulmonary inflammation and injury,” J. Clin. Invest., 116(8):2173-2182 (2006), which is hereby incorporated by reference.\nAll ADA-deficient mice were maintained on ADA enzyme therapy from birth to postnatal day 21 to prevent defects in alveolar development. Banerjee, et al. Am. J. Respir. Cell Mol. Biol. 30-38-50 (2004). ADA enzyme therapy was discontinued at postnatal day 21, and 3 days later the mice were given intraperitoneal injections of 1 mg/kg of Compound A twice daily for 14 days.\nLungs were collected from postnatal day 38 mice and prepared routinely for sectioning and H&E staining Tissues were taken from control (ADA+) mice (FIG. 3A), the ADA-deficient mice (FIG. 3B), and the ADA-deficient mouse treated with Compound A (FIG. 3C). Sections are representative of 6-8 different mice from each treatment group."}, "HPAECs [4]": {"tested_on": "HPAECs", "assay": "Endothelin-1 release from HPAECs (ELISA)", "type": "cell-based, human", "settings": "NECA 10 μM with Compound A 100 nM, 18 hr", "description": "(§2) HPASM were grown in smooth muscle growth medium (SMGM-2). HPAECs were grown in endothelium growth medium (EGM-2). Before treatment, cells were seeded in 24-well plates and allowed to grow to ˜80% confluency. Cells were washed and then incubated in serum free basal medium in the absence or presence of adenosine receptor agonists and antagonists. In the proliferation assays, HPASM were incubated in 50% medium collected from HPAEC cells treated with vehicle or NECA.\n(§3) IL-6 and G-CSF were measured using human 30-plex luminex kit from Invitrogen (Carlsbad, Calif.). IL-8, endothelin-1, thromboxane B2 were measured using ELISA (kits obtained from Invitrogen, AssayDesigns (Ann Arbor, Mich.), and Caymen Biomedicals (Ann, Arbor, Mich.) respectively).\nHPAECs were incubated in the absence or presence of NECA at various concentrations (0.1 μM, 1 μM, and 10 μM) and Compound A (100 nM) for 18 hours. The amount of ET-1, provided in pg/mL was measured by the ELISA protocol discussed above."}, "HPAECs [5]": {"tested_on": "HPAECs", "assay": "Release of IL-8 in endothelial cells (ELISA)", "type": "cell-based, human", "settings": "NECA 10 μM with Compound A 100 nM, 18 hr", "description": "as §2, §3\nHPAECs were incubated in basal medium in the absence or presence of NECA (N-ethylcarboxamide adenosine) at various concentrations (0.1 μM, 1 μM, and 10 μM) and Compound A (100 nM) for 18 hours. NECA is a known adenosine agonist of A1 and A2 subtypes. The amount of IL-8, provided in pg/mL, was measured by ELISA."}, "HPASMs [6]": {"tested_on": "HPASMs", "assay": "Cytokine release from HPASMs (IL-6, IL-8, G-CSF)", "type": "cell-based, human", "settings": "NECA 10 μM with Compound A 100 nM, 18 hr", "description": "as §2, §3\n(§4) HPASMs were incubated in the absence or presence of NECA at various concentrations (0.1 μM, 1 μM, and 10 μM) and Compound A (100 nM) for 18 hours."}, "HPASMs [7]": {"tested_on": "HPASMs", "assay": "Effect of NECA-activated HPAECs on proliferation of HPASMs (cell count)", "type": "cell-based, human", "settings": "supernatant of HPAECs treated with NECA 10 μM and Compound A 100 nM for 18 hours; HPASMs 18 hours", "description": "as §2\nCell supernatants were collected from HPAECs treated with vehicle (control medium), NECA (10 μM, NECA medium) or NECA and Compound A (100 nM) for 18 hours. These cell supernatants (diluted 1:1 in […] basal medium) with or without ambrisentan (30 nM) were used to incubate HPASMs for 18 hours. Cells were counted. NECA-HPAEC medium increased cell number of HPASMs at 18 hours compared to control-HPAEC medium."}, "HPASMs [8]": {"tested_on": "HPASMs", "assay": "Thromboxane B2 release from HPASMs (ELISA)", "type": "cell-based, human", "settings": "NECA 10 μM with Compound A 100 nM, 18 hours", "description": "as §2, §3, §4"}, "[9]": {"tested_on": "Male C57BL6 mice treated with bleomycin (BLM)", "assay": "Bleomycin-induced pulmonary hypertension associated with chronic lung disease in mice", "type": "in vivo", "description": "Methods: Male C57BL6 mice were treated with bleomycin (BLM) at 0.035 units per mouse, or vehicle (phosphate buffered saline (PBS)) intra-peritoneally twice weekly for 4 weeks. When pulmonary fibrosis was established, on day 15, mice were provided with special chow containing an A2B receptor antagonist, Compound A (˜10 mg/kg/day dose), for the next 18 days (FIG. 15). In contrast, control groups received normal chow.\nOn day 33, right ventricle systolic pressure (RVSP), systemic blood pressure, heart rate and lung function measurements were performed. Additionally, the lungs were collected for immunohistochemistry (IHC) for α-smooth muscle actin (αSMA).\nStatistical Analysis: All data were analyzed using a 1-way ANOVA with a Newman-Keuls post test. The software used to conduct the statistical analysis was Graph-Pad Prism v5.00 (La Jolla Calif.). In all related figures, significance levels: *P<0.05, **[…]<P<0.01, ***P<0.001 refer to comparisons between PBS and BLM groups; significance levels: #P<0.05, # # 0.001<P<0.01, # # # P<0.001 refer to comparisons between BLM and BLM+Compound A groups. All values in the figures represent mean±SEM (standard error or the mean) for 5-8 mice per group."}, "HPASMs [10]": {"tested_on": "HPASMs", "assay": "NECA-induced expression of NOTCH3 in HPASMs (real-time RT-PCR)", "type": "cell-based, human", "settings": "NECA 10 μM along with Compound A 100 nM, 1.5 hours", "description": "as §1\nHPASMs were incubated with NECA (10 μM) or NECA (10 μM) along with Compound A (100 nM) for 1.5 hours. The expression of NOTCH3 was measured by quantitive real-time RT-PCR using the methodologies described above."}, "[11]": {"settings": "mice, Compound A ~10 mg/kg/day in chow day 15 to 33, day 33"}, "[12]": {"settings": "mice, Compound A ~10 mg/kg/day in chow day 15 to 33, α-SMA immunostaining"}, "[13]": {"settings": "mice, Compound A ~10 mg/kg/day in chow, Flexivent"}}, "data": [{"smiles": "CCCn1c(=O)c2[nH]c(-c3cnn(Cc4cccc(C(F)(F)F)c4)c3)nc2n(CC)c1=O", "note": "[Compound A, 3-ethyl-1-propyl-8-(1-(3-(trifluoromethyl)benzyl)-1H-pyrazol-4-yl)-1H-purine-2,6(3H,7H)-dione]", "values": [{"measurement": "NECA-induced increase in smooth muscle cell migration", "setting": "HPASMs [1]", "result": "inhibited"}, {"measurement": "NECA-induced mRNA expression of ADAMTS1, ADAMTS8, CDH1, MMPI, MMP12, HAS1, ITGA7, COL1A1, COL8A1 and CTGF", "setting": "HPASMs [2]", "result": "reduced"}, {"measurement": "vascular wall thickening", "setting": "[3]", "result": "drastically reduced"}, {"measurement": "NECA-induced release of ET-1", "setting": "HPAECs [4]", "result": "markedly reduced"}, {"measurement": "NECA-induced release of IL-8", "setting": "HPAECs [5]", "result": "markedly reduced"}, {"measurement": "NECA-induced release of G-CSF", "setting": "HPASMs [6]", "result": "markedly reduced"}, {"measurement": "NECA-induced release of IL-6", "setting": "HPASMs [6]", "result": "markedly reduced"}, {"measurement": "NECA-induced release of IL-8", "setting": "HPASMs [6]", "result": "markedly reduced"}, {"measurement": "NECA induced proliferation of HPASMs", "setting": "HPASMs [7]", "result": "inhibited"}, {"measurement": "NECA-induced release of thromboxane B2", "setting": "HPASMs [8]", "result": "markedly reduced"}, {"measurement": "BLM-decreased arterial oxygenation levels", "setting": "[9]; awake mice, Compound A ~10 mg/kg/day in chow, pulse oximetry", "result": "attenuated"}, {"measurement": "BLM-induced increase of interleukin (IL)-6 level", "setting": "[9]; mice, BALF and plasma, day 33, ELISA, Compound A ~10 mg/kg/day in chow", "result": "significantly attenuated"}, {"measurement": "BLM-induced increase in peri-vascular fibrosis (total collagen levels in the lung)", "setting": "[9]; mice, Compound A ~10 mg/kg/day in chow day 15 to 33, Masson's trichrome", "result": "attenuated"}, {"measurement": "BLM-induced increase in RV hypertrophy", "setting": "[9]; [11]", "result": "attenuated"}, {"measurement": "BLM-induced increase in RVSP", "setting": "[9]; [11]", "result": "attenuated"}, {"measurement": "BLM-induced increase in extent of vascular muscularization", "setting": "[9]; [12]", "result": "attenuated"}, {"measurement": "BLM-induced increase in number of muscularized vessels", "setting": "[9]; [12]", "result": "attenuated"}, {"measurement": "BLM-increased dynamic resistance of the lungs", "setting": "[9]; [13]", "result": "attenuated"}, {"measurement": "BLM-increased quasi-static elastance", "setting": "[9]; [13]", "result": "attenuated"}, {"measurement": "BLM-increased tissue damping", "setting": "[9]; [13]", "result": "attenuated"}, {"measurement": "BLM-induced increase of ET-1", "setting": "[9]; mice, plasma (ELISA) and pulmonary vessel wall, Compound A ~10 mg/kg/day in chow", "result": "significantly attenuated"}, {"measurement": "increase of NOTCH3 expression induced by NECA", "setting": "HPASMs [10]", "result": "inhibited"}]}]}
